The nature of data set [1]: Solubilization of itraconazole in aqueous acetic acid solutions, visually monitored for dissolution (Example 1). The format is physicochemical. Conditions: 100 mg itraconazole. The protocol:
Acetic acid solutions were prepared in water to 10%, 20%, 50% and 75% concentrations (expressed as volume glacial acetic acid/total volume of solution ×100). 100 mg itraconazole solute were then mixed independently with 1 ml of each solution and visually monitored for dissolution. If necessary, additional 1 ml aliquots of each acetic acid solution were added until the itraconazole solute was dissolved.

For data set [2] the following is noted: cited from earlier work.

Our source for the Solubility and solubility in water values is patent US6461545B1, “Method of solubilizing and encapsulating itraconazole” (Emisphere Technologies, Inc., priority 1995, dated 2002).

Regarding `CCC(C)n1ncn(-c2ccc(N3CCN(c4ccc(OCC5COC(Cn6cncn6)(c6ccc(Cl)cc6Cl)O5)cc4)CC3)cc2)c1=O` (racemic) [itraconazole], the Solubility result in data set [1] (10% acetic acid v:v, 1 ml solvent, cold) is reported as “Ins”; in data set [1] (10% acetic acid v:v, 1 ml solvent, hot), “Ins”; in data set [1] (10% acetic acid v:v, 2 ml solvent, cold), “Ins”; in data set [1] (10% acetic acid v:v, 2 ml solvent, hot), “Ins”; in data set [1] (10% acetic acid v:v, 3 ml solvent, cold) it was “Ins”; in data set [1] (10% acetic acid v:v, 3 ml solvent, hot), “Ins”. The Solubility result in data set [1] (10% acetic acid v:v, 4 ml solvent, hot) was “Ins”; in data set [1] (20% acetic acid v:v, 1 ml solvent, cold), “Ins”; in data set [1] (20% acetic acid v:v, 1 ml solvent, hot) it was “Ins”; in data set [1] (20% acetic acid v:v, 2 ml solvent, cold) it was “Ins”; in data set [1] (20% acetic acid v:v, 2 ml solvent, hot) it was “Ins”; in data set [1] (20% acetic acid v:v, 3 ml solvent, cold), “Ins”. Also, the Solubility result in data set [1] (20% acetic acid v:v, 3 ml solvent, hot) is on record as “Part”; in data set [1] (50% acetic acid v:v, 1 ml solvent, cold), “Ins”; in data set [1] (50% acetic acid v:v, 1 ml solvent, hot) it was “Ins”; in data set [1] (50% acetic acid v:v, 2 ml solvent, cold), “Ins”; in data set [1] (50% acetic acid v:v, 2 ml solvent, hot), “Sol”; in data set [1] (50% acetic acid v:v, 3 ml solvent, cold), “Ins”. In addition, in data set [1] (75% acetic acid v:v, 1 ml solvent, cold), the Solubility result is “Sol”. For the same molecule, the solubility in water result in data set [2] is on record as “less than 0.00001 g/ml”.
